Values belong to the molecule of their own block, whether it stands above or below them.
How the values were obtained:
[1] = target: T1, sodium-coupled neutral amino acid transporter 2 (SNAT2/SLC38A2) (Homo sapiens, UniProt Q96QD8); assay: GC-MS cell uptake assay, SNAT2-expressing vs SNAT2-KO cells (KM); assay type: cell-based
T1 construct: dox-inducible sgRNA-resistant human SLC38A2 cDNA in Slc38a2-KO mouse HY15549 cells
T1 sequence (Q96QD8 1-506): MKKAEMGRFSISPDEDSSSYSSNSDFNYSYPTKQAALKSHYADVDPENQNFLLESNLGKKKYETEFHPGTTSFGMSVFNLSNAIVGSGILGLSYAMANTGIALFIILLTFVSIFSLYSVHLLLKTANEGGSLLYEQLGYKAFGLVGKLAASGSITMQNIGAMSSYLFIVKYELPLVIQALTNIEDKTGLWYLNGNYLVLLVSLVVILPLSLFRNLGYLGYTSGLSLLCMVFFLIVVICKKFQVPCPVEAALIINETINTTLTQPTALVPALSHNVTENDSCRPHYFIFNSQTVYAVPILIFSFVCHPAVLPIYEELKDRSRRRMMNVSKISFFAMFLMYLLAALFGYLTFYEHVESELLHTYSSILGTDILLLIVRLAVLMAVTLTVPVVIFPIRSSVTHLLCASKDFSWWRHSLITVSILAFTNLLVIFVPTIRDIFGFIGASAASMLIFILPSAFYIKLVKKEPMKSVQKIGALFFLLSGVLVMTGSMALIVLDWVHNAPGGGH

[2] = target: T1, sodium-coupled neutral amino acid transporter 2 (SNAT2/SLC38A2); assay: inhibition of SNAT2-dependent MeAIB uptake in cells (GC-MS); assay type: cell-based
[3] = substrate: CNC(C)(C)C(=O)O; assay: GC-MS cell uptake assay, SNAT1-overexpressing vs empty vector cells (KM); assay type: cell-based, Homo sapiens

Km [1]: ~300 µM
Molecule: CNC(C)(C)C(=O)O [MeAIB]

Molecule: C[C@H](N)C(=O)O [L-alanine]
IC50 [2]: 1.9 mM

B1: SNAT1 (Homo sapiens) (protein)
chain: MMHFKSGLELTELQNMTVPEDDNISNDSNDFTEVENGQINSKFISDRESRRSLTNSHLEKKKCDEYIPGTTSLGMSVFNLSNAIMGSGILGLAFALANTGILLFLVLLTSVTLLSIYSINLLLICSKETGCMVYEKLGEQVFGTTGKFVIFGATSLQNTGAMLSYLFIVKNELPSAIKFLMGKEETFSAWYVDGRVLVVIVTFGIILPLCLLKNLGYLGYTSGFSLSCMVFFLIVVIYKKFQIPCIVPELNSTISANSTNADTCTPKYVTFNSKTVYALPTIAFAFVCHPSVLPIYSELKDRSQKKMQMVSNISFFAMFVMYFLTAIFGYLTFYDNVQSDLLHKYQSKDDILILTVRLAVIVAVILTVPVLFFTVRSSLFELAKKTKFNLCRHTVVTCILLVVINLLVIFIPSMKDIFGVVGVTSANMLIFILPSSLYLKITDQDGDKGTQRIWAALFLGLGVLFSLVSIPLVIYDWACSSSSDEGH
notes: CMV-driven human SLC38A1 cDNA stably expressed in HY15549 iSNAT2 cells
Km [3]: 2.9 mM
